What was measured:
Assay in all cases: radiometric filter-binding kinase assay, Kinase HotSpot
Details in all cases: compound 0.5 µM; ATP 10 µM
[1] = molecular target: CAMKK1 (human) (UniProt Q8N5S9)
[2] = molecular target: CLK4 (human) (UniProt Q9HAZ1)
[3] = molecular target: PRKACA (human) (UniProt P17612)
[4] = molecular target: LRRK2 (human) (UniProt Q5S007)
[5] = molecular target: PAK2 (human) (UniProt Q13177)
[6] = molecular target: FRK (human) (UniProt P42685)
[7] = molecular target: GRK5 (human) (UniProt P34947)
[8] = molecular target: TAOK3 (human) (UniProt Q9H2K8)
[9] = molecular target: EPHA1 (human) (UniProt P21709)
[10] = molecular target: DSTYK (human) (UniProt Q6XUX3)
[11] = molecular target: CDK5 CDK5R1 p25 (human) (UniProt Q00535+Q15078)
[12] = molecular target: MYLK2 (human) (UniProt Q9H1R3)
[13] = molecular target: FGFR4 (human) (UniProt P22455)
[14] = molecular target: DYRK4 (human) (UniProt Q9NR20)
[15] = molecular target: MELK (human) (UniProt Q14680)
[16] = molecular target: PRKX (human) (UniProt P51817)
[17] = molecular target: FGR (human) (UniProt P09769)
[18] = molecular target: PASK (human) (UniProt Q96RG2)
[19] = molecular target: CHEK2 (human) (UniProt O96017)
[20] = molecular target: NEK1 (human) (UniProt Q96PY6)
[21] = molecular target: MAPK14 (human) (UniProt Q16539)
[22] = molecular target: DAPK2 (human) (UniProt Q9UIK4)
[23] = molecular target: ALK (human) (UniProt Q9UM73)
[24] = molecular target: PKN2 (human) (UniProt Q16513)
[25] = molecular target: PRKCE (human) (UniProt Q02156)
[26] = molecular target: MAPKAPK3 (human) (UniProt Q16644)
[27] = molecular target: GSK3A (human) (UniProt P49840)
[28] = molecular target: FLT3 (human) (UniProt P36888)
[29] = molecular target: PRKCI (human) (UniProt P41743)
[30] = molecular target: CAMK4 (human) (UniProt Q16566)
[31] = molecular target: PNCK (human) (UniProt Q6P2M8)
[32] = molecular target: CSNK1G2 (human) (UniProt P78368)
[33] = molecular target: NTRK2 (human) (UniProt Q16620)
[34] = molecular target: FGFR1 (human) (UniProt P11362)
[35] = molecular target: MARK1 (human) (UniProt Q9P0L2)
[36] = molecular target: WNK3 (human) (UniProt Q9BYP7)
[37] = molecular target: RPS6KA2 KD1 KD2 (human) (UniProt Q15349)
[38] = molecular target: CDK1 CCNA2 (human) (UniProt P06493+P20248)
[39] = molecular target: SGK2 (human) (UniProt Q9HBY8)
[40] = molecular target: HIPK3 (human) (UniProt Q9H422)
[41] = molecular target: MAPK3 (human) (UniProt P27361)
[42] = molecular target: PRKCH (human) (UniProt P24723)

Chain of PRKX (human) (P51817 whole entry, looked up): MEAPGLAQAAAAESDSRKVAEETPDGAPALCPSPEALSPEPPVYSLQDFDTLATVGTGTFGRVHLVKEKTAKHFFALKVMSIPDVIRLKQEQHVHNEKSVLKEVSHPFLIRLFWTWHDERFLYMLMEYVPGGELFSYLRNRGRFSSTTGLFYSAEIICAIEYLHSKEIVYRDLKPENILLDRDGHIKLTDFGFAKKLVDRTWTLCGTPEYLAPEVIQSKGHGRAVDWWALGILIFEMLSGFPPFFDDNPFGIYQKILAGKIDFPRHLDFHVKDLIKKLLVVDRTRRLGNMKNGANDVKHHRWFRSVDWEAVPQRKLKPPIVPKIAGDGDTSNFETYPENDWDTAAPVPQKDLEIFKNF
Chain of MARK1 (human) (Q9P0L2 whole entry, looked up): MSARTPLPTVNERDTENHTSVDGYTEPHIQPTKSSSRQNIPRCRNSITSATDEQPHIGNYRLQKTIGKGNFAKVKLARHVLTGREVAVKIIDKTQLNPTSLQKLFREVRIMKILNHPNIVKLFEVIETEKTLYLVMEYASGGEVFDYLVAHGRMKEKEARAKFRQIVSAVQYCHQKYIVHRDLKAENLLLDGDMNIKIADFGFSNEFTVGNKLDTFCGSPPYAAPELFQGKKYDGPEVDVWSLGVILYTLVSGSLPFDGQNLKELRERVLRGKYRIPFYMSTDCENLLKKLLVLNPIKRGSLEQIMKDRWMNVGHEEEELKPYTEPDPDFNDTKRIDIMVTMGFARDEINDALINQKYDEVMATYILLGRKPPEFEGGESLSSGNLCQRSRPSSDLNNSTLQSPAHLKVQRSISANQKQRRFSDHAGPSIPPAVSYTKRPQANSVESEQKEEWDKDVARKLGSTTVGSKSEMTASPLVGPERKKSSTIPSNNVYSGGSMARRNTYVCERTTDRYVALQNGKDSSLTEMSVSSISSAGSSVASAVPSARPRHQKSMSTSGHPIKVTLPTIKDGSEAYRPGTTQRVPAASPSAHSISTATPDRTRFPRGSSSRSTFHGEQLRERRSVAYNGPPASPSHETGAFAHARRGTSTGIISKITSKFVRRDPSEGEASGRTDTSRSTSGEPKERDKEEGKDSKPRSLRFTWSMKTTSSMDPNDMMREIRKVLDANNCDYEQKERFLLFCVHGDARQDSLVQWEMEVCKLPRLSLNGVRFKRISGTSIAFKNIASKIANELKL
Chain of SGK2 (human) (Q9HBY8 whole entry, looked up): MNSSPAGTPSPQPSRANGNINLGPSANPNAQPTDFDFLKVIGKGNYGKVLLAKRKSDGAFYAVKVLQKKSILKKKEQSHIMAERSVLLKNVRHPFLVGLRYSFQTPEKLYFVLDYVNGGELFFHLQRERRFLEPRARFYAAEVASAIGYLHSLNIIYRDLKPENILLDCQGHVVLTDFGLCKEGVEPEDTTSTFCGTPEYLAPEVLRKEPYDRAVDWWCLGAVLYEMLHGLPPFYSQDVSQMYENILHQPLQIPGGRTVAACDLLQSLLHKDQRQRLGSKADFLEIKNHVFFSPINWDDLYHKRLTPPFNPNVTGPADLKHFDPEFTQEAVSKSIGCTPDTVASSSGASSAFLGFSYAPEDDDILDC
Chain of MAPK14 (human) (Q16539 whole entry, looked up): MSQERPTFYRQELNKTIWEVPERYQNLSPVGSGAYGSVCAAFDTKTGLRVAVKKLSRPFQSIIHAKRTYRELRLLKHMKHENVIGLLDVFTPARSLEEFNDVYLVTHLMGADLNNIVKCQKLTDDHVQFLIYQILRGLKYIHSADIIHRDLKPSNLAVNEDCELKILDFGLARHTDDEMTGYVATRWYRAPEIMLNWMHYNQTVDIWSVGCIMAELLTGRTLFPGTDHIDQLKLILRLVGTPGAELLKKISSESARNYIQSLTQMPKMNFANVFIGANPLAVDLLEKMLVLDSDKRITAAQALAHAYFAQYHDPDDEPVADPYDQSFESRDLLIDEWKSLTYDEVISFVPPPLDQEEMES
Chain of FGR (human) (P09769 whole entry, looked up): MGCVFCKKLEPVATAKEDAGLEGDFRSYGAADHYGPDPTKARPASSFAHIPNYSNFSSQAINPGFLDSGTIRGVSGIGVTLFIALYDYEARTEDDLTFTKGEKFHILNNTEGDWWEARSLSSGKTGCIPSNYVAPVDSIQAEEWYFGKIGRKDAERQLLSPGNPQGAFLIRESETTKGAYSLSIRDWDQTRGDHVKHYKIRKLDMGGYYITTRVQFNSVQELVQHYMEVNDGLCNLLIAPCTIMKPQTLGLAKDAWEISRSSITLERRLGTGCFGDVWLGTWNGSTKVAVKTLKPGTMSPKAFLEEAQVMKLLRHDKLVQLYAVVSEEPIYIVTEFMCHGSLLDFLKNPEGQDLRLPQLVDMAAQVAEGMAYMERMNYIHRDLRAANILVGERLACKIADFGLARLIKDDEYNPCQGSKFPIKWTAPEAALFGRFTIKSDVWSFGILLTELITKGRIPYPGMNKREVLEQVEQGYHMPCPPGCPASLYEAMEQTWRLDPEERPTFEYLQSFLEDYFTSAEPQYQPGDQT
Chain of FRK (human) (P42685 whole entry, looked up): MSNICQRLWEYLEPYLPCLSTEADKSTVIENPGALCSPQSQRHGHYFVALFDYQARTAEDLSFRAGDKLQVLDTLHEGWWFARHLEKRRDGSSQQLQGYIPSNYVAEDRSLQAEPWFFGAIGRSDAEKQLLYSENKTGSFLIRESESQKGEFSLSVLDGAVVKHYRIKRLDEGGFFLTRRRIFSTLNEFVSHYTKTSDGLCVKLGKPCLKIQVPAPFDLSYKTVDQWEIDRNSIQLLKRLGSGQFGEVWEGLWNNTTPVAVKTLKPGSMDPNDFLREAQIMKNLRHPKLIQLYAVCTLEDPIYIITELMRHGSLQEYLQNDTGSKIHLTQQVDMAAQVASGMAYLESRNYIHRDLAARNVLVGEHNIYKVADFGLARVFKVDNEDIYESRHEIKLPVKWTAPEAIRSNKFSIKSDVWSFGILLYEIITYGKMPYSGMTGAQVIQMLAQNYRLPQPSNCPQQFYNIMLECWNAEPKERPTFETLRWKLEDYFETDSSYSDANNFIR
Chain of DAPK2 (human) (Q9UIK4 whole entry, looked up): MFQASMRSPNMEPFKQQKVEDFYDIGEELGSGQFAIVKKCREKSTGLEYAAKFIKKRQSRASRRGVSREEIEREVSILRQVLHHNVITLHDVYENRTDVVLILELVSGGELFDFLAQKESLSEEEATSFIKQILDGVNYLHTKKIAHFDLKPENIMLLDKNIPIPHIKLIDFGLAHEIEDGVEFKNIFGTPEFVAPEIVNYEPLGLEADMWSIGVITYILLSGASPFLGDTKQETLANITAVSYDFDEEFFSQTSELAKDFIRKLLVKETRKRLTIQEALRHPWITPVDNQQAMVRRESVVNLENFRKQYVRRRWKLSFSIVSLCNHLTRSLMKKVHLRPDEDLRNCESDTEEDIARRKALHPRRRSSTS
Chain of PAK2 (human) (Q13177 whole entry, looked up): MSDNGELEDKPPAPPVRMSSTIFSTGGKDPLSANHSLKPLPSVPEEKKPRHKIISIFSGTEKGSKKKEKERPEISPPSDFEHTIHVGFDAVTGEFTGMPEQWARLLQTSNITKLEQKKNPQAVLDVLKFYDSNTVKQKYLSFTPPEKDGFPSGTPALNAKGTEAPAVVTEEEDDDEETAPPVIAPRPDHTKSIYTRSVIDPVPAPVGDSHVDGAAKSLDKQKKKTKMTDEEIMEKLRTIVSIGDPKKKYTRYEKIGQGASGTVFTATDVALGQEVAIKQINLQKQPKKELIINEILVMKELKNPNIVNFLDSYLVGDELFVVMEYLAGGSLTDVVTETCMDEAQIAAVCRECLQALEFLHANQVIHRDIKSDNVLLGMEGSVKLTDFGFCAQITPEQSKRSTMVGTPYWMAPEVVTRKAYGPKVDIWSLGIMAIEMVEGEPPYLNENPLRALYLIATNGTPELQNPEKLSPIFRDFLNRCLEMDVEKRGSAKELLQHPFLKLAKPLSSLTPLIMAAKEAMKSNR
Chain of MAPK3 (human) (P27361 whole entry, looked up): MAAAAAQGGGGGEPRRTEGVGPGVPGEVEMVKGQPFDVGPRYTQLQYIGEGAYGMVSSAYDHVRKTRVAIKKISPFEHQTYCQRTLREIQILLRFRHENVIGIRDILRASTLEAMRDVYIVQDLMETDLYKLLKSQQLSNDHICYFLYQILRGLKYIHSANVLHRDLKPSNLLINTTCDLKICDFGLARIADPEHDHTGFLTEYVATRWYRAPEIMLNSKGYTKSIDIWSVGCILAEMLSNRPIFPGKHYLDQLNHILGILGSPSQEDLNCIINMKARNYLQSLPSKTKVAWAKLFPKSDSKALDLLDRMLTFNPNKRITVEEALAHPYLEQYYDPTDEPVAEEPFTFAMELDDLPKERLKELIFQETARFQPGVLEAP
Chain of MYLK2 (human) (Q9H1R3 whole entry, looked up): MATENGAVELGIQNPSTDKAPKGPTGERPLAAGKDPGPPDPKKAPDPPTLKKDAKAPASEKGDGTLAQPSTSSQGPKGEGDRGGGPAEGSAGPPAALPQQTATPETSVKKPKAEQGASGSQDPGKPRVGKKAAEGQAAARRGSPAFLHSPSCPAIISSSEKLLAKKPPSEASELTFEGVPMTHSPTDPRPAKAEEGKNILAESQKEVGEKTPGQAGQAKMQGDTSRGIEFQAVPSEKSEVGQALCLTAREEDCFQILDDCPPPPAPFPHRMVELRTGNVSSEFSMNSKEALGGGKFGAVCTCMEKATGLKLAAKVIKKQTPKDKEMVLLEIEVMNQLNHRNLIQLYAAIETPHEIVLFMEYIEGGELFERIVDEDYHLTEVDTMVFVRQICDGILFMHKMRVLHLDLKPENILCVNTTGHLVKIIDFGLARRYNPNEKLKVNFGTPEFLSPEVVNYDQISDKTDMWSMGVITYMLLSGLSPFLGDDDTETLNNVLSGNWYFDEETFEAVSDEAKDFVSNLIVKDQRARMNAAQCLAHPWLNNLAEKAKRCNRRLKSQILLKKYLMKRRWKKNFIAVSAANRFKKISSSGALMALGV

NC(=O)c1ccc(N(C(N)=O)c2c(F)cccc2F)nc1-c1ccc(F)cc1F
residual activity [1]: 98.9% | residual activity [2]: 114% | residual activity [3]: 101% | residual activity [4]: 82% | residual activity [5]: 101% | residual activity [6]: 106% | residual activity [7]: 103% | residual activity [8]: 95.7% | residual activity [9]: 99.1% | residual activity [10]: 101% | residual activity [11]: 95.9% | residual activity [12]: 101% | residual activity [13]: 96.2% | residual activity [14]: 96.3% | residual activity [15]: 87.1% | residual activity [16]: 123% | residual activity [17]: 94.7% | residual activity [18]: 103% | residual activity [19]: 97.6% | residual activity [20]: 69.6% | residual activity [21]: 5.23% | residual activity [22]: 86.8% | residual activity [23]: 99.6% | residual activity [24]: 99.7% | residual activity [25]: 101% | residual activity [26]: 99.1% | residual activity [27]: 98.6% | residual activity [28]: 97.2% | residual activity [29]: 99.1% | residual activity [30]: 91.9% | residual activity [31]: 108% | residual activity [32]: 99.6% | residual activity [33]: 102% | residual activity [34]: 99% | residual activity [35]: 132% | residual activity [36]: 96.6% | residual activity [37]: 97.5% | residual activity [38]: 101% | residual activity [39]: 107% | residual activity [40]: 98.4% | residual activity [41]: 95.2% | residual activity [42]: 112%

O=c1cc(-c2cccc3c2Sc2ccccc2S3)oc(N2CCOCC2)c1
residual activity [1]: 112% | residual activity [2]: 101% | residual activity [3]: 99.6% | residual activity [4]: 102% | residual activity [5]: 100% | residual activity [6]: 99.5% | residual activity [7]: 105% | residual activity [8]: 115% | residual activity [9]: 84.7% | residual activity [10]: 93.4% | residual activity [11]: 96.8% | residual activity [12]: 97.4% | residual activity [13]: 100% | residual activity [14]: 105% | residual activity [15]: 99.9% | residual activity [16]: 113% | residual activity [17]: 84.9% | residual activity [18]: 101% | residual activity [19]: 102% | residual activity [20]: 100% | residual activity [21]: 99.3% | residual activity [22]: 98.8% | residual activity [23]: 96.2% | residual activity [24]: 72.9% | residual activity [25]: 109% | residual activity [26]: 102% | residual activity [27]: 86.7% | residual activity [28]: 98.4% | residual activity [29]: 103% | residual activity [30]: 94% | residual activity [31]: 109% | residual activity [32]: 93.3% | residual activity [33]: 99.1% | residual activity [34]: 99.2% | residual activity [35]: 100% | residual activity [36]: 109% | residual activity [37]: 81.4% | residual activity [38]: 104% | residual activity [39]: 115% | residual activity [40]: 105% | residual activity [41]: 118% | residual activity [42]: 99.7%

Oc1ccc(-c2nc(-c3ccc(F)cc3)c(-c3ccncc3)[nH]2)cc1
residual activity [1]: 123% | residual activity [2]: 106% | residual activity [3]: 84.3% | residual activity [4]: 95.8% | residual activity [5]: 94.1% | residual activity [6]: 90.4% | residual activity [7]: 104% | residual activity [8]: 103% | residual activity [9]: 94.4% | residual activity [10]: 100% | residual activity [11]: 96% | residual activity [12]: 93.5% | residual activity [13]: 92.9% | residual activity [14]: 101% | residual activity [15]: 102% | residual activity [16]: 84% | residual activity [17]: 93% | residual activity [18]: 79.3% | residual activity [19]: 98.9% | residual activity [20]: 98.9% | residual activity [21]: 7.42% | residual activity [22]: 96.8% | residual activity [23]: 104% | residual activity [24]: 101% | residual activity [25]: 96% | residual activity [26]: 101% | residual activity [27]: 91.1% | residual activity [28]: 95.1% | residual activity [29]: 93.4% | residual activity [30]: 102% | residual activity [31]: 99.7% | residual activity [32]: 91.9% | residual activity [33]: 102% | residual activity [34]: 86.8% | residual activity [35]: 101% | residual activity [36]: 101% | residual activity [37]: 101% | residual activity [38]: 90.9% | residual activity [39]: 99.6% | residual activity [40]: 98.3% | residual activity [41]: 101% | residual activity [42]: 95%
